Assay results reported in patent US20100297020A1, “PHOSPHORYLATED AND PHOSPHONATED PYRONE ANALOGS FOR THERAPEUTIC TREATMENT” (Limerick Biopharma, Inc., priority 2008, published 2010).

Assays:
[1] = test system: BB19 cells, human BCECs (brain capillary endothelial cells); test: Tacrolimus uptake assay; format: cell-based; conditions: Endothelial cell, 1 h, 0.1 μM test compound, 1 hour incubation, 3H-tacrolimus 34 nM, read-out: cell associated ^3H-tacrolimus uptake, % of control
Description: (§1) BB19 cells, human BCECs (brain capillary endothelial cells) immortalized with the E6E7 genes of human papilloma virus, were kindly provided from Jacques G. Prudhomme, Department of Biology, University of California, Riverside, U.S.A. The cells were cultured as monolayer culture in Amniomax™-C100 basal medium (catalog number 17001-157) with Amniomax™-C100 supplement (catalog number 12556-049) (Invitrogen, Basel, CH).
(§2) Cells were seeded onto culture surfaces precoated with 10 μg/cm^2 rat tail collagen type I (BD Bioscience, Allschwil, CH) at a density of approximately 50′000 cells/cm^2 and were cultured in an incubator at 37° C. with 5% CO2, 95% fresh air and saturated humidity. For uptake assays, cells were seeded on precoated 96-well plates. Assays were performed at confluency, after 6 days in culture.
(§3) BB19 cells were seeded 50′000 cells/cm^2 on 96-well plates (Falcon) and incubated under condition described above for 6 days. Before starting the assay, cells were washed 2 times with pre-warmed Dulbecco's MEM with Glutamax-I (catalog number 61965) (Invitrogen AG, Basel, CH), supplemented with 1% non essential amino acids, 1% sodium pyruvate, 50 μg/ml gentamycin (Invitrogen AG) (DMEM). Cells were then incubated for 15 min at 37° C. and 120 rpm in DMEM with or without the specified concentrations of test compounds under investigation. After this pre-incubation, cells were incubated in DMEM containing [propyl-3H]-dihydro-FK506 (3H-tacrolimus, 1 μCi/ml, 34 nM) and with or without the specified concentrations of test compounds for 1 hour at 37° C. and 120 rpm. During this 1-hour incubation period, influx and efflux of the substrate, ^3H-tacrolimus, occur. After the 1-hour incubation period, assay was terminated by placing the assay plate on ice and washing the cells twice with ice-cold DMEM. Determination of cell associated ^3H-tacrolimus was performed by addition of Insta Gel and scintillation liquid to trypsinized cells followed by analysis on a scintillation counter (Packard TriCarb2000, Can berra Packard S.A.). The results are expressed as: % of control=100×[^3H-tacrolimus conc. with test compound]/[^3H-tacrolimus conc. with vehicle]

[2] = test system: BB19 cells, human BCECs (brain capillary endothelial cells); test: Cyclosporin uptake assay; format: cell-based; conditions: 0.1 μM test compound; 1 hour incubation
Description: as §1, §2, §3
The cyclosporin uptake assay was performed similarly as described above for tacrolimus uptake assay except that ^3H-cyclosporin was used in place of ^3H-tacrolimus.

[3] = test system: tacrolimus treated Wistar rats; test: Tacrolimus induced hyperglycemia in male Wistar rats; format: in vivo; conditions: for plasma glucose levels by day-14: tacrolimus 2 mg/kg PO daily, alone or with compound 1 at 30, 10 and 3 mg/kg IP
[4] = test system: cyclosporin treated Wistar rats; test: Cyclosporine induced hyperglycemia in male Wistar rats; format: in vivo
[5] = test system: cyclosporin treated Wistar rats; test: Islet histopathology and apoptosis in cyclosporine treated Wistar rats; format: in vivo; conditions: cyclosporine 10 mg/kg PO, alone (Group-2) or with compound 1 30 mg/kg IP (Group-3)
male ZDF rats = test: 4-week study in male ZDF rats (compound 1)
[6] = test system: rats treated with tacrolimus; test: Renal pathology in rats co-administered with tacrolimus; format: in vivo; conditions: tacrolimus 0.5 mg/kg with vehicle or with Compound 2 at 11, 28 and 114 mg/kg, 25 days
Description: Tissue is removed from the kidney of rats treated with tacrolimus (Prograf®) at 0.5 mg/kg and inert vehicle, and from rats treated with tacrolimus (Prograf®) at 0.5 mg/kg and quercetin-3′-O-methylphosphonate (Compound 2) at 11 mg/kg, 28 mg/kg, and at 114 mg/kg for 25 days. […] The tissue from rats treated with Compound 2 and tacrolimus show no vacuoles.

[7] = compound 1 30 mg/kg, rosiglitazone 6 mg/kg, compared to vehicle

In the case of `O=c1c(OCP(=O)(O)O)c(-c2ccc(O)c(O)c2)oc2ccccc12` [Compound 20, (2-(3,4-Dihydroxyphenyl)-4-oxo-4H-chromen-3-yloxy)methylphosphonic acid], the activity at 0.1 µM [1] is reported as 62% and the “cell associated ^3H-cyclosporin uptake, % of control” value [2] is reported as 77 % of control.

For `O=c1c(O)c(-c2ccc(O)c(OCP(=O)(O)O)c2)oc2ccccc12` [Compound 18, (2-Hydroxy-5-(3-hydroxy-4-oxo-4H-chromen-2-yl)phenoxy)methylphosphonic acid], the activity at 0.1 µM [1] was 66% and the “cell associated ^3H-cyclosporin uptake, % of control” value [2] was 77 % of control.

`O=c1c(OCP(=O)(O)O)c(-c2ccc(O)c(O)c2)oc2cc(O)cc(O)c12` [Compound 1, Quercetin-3-O-methylphosphonic acid] was tested, and the “plasma insulin level during OGTT” value ([3]; 0, 15 and 30 minutes post glucose, compound 1 at all three dose levels with tacrolimus 2 mg/kg) was “higher than tacrolimus treated (group-2) or vehicle treated (Group-1) animals”, the “plasma glucose level during OGTT” value ([3]; compound 1 30 mg/kg and 10 mg/kg IP with tacrolimus 2 mg/kg PO, day-15) was “a level similar to that of vehicle treated animals” and the “plasma glucose levels by day-14” value [3] was “reduced tacrolimus induced hyperglycemia”. For the same compound, the “plasma glucose level during OGTT” value ([4]; compound 1 30 mg/kg IP with cyclosporine 10 mg/kg PO, day-15) was “a level similar to that of vehicle treated animals”, the “plasma glucose levels by day-14” value ([4]; cyclosporine 10 mg/kg PO daily, alone or with compound 1 at 30, 10 and 3 mg/kg IP) was “reduced cyclosporine induced hyperglycemia” and the “plasma glucose levels by day-14” value ([4]; cyclosporine 10 mg/kg PO with compound 1 at 30 mg/kg IP) was “completely prevented cyclosporine induced hyperglycemia”. For the same compound, the “number of apoptotic islet cells” value [5] was “reduced the number of apoptotic cells to that of vehicle treated animals”, the “islet cell hyperplasia and degeneration/necrosis scores” value ([5]; score 0-4) was “normalized the scores to that of vehicle treated animals” and the plasma glucose levels (male ZDF rats; 4 weeks daily i.p., compound 1 30 and 10 mg/kg) was “maintains a lower plasma glucose level than vehicle treatment”. The “glycated hemoglobin levels (% HbA1c) at termination” value (male ZDF rats; [7]) was “significantly lower glycated hemoglobin levels”, the pancreatic insulin levels (male ZDF rats; [7]) was “significantly higher than that of the vehicle treated animals” and the “plasma insulin levels, fed and fasting” value (male ZDF rats; day-28 and day-29) was “significantly higher plasma insulin levels under both fed and fasting conditions”. For the same compound, the liver triglyceride (male ZDF rats; four weeks of daily treatment) was “did not increase liver triglyceride” and the “plasma glucose during OGTT” value (male ZDF rats; oral glucose 2 g/kg, day-29 after 12-hr fast, 15, 30, 60, 90 minutes) was “maintain lower plasma glucose level during OGTT”.

`C=CC[C@@H]1/C=C(\C)C[C@H](C)C[C@H](OC)[C@H]2O[C@@](O)(C(=O)C(=O)N3CCCC[C@H]3C(=O)O[C@H](/C(C)=C/[C@@H]3CC[C@@H](O)[C@H](OC)C3)[C@H](C)[C@@H](O)CC1=O)[C@H](C)C[C@@H]2OC` [Tacrolimus, tacrolimus, reference compound] was tested, and the “plasma glucose levels by day-14” value [3] was “induced hyperglycemia is clearly demonstrated” and the “vacuolation of kidney tissue” value [6] was “significant vacuolation”.

`O=c1c(O)c(-c2ccc(OCP(=O)(O)O)cc2)oc2cc(O)cc(O)c12` [Compound 11, (4-(3,5,7-Trihydroxy-4-oxo-4H-chromen-2-yl)phenoxy)methylphosphonic acid] was tested, and the activity at 0.1 µM [1] was 49% and the “cell associated ^3H-cyclosporin uptake, % of control” value [2] was 78 % of control.

For `O=c1c(O)c(-c2ccccc2)oc2cc(O)cc(OCP(=O)(O)O)c12` [Compound 16, (3,7-Dihydroxy-4-oxo-2-phenyl-4H-chromen-5-yloxy)methylphosphonic acid], the activity at 0.1 µM [1] was 54%.

Work on `O=c1c(O)c(-c2ccccc2)oc2cc(OCP(=O)(O)O)cc(O)c12` [Compound 10, (3,5-Dihydroxy-4-oxo-2-phenyl-4H-chromen-7-yloxy)methylphosphonic acid] yielded an activity at 0.1 µM [1] of 51%.
